Test results from patent publication US11187660B2, “Fluorescent probes for monitoring voltage by photo-induced electron transfer” (The Regents of the University of California, priority 2011, dated 2021).

Test: Absorbance and emission spectra in n-octanol
Assay type: physicochemical
Description: VF2.4.Cl features an absorbance spectrum with a λmax in octanol (to simulate cellular membranes) centered at 527 nm (ε527=4×10^4 M^−1 cm^−1). Excitation of VF2.4.Cl at 527 nm results in emission centered at 540 nm (Φ=0.23) (FIG. 3).
UV absorbance and fluorescence spectra were recorded on a Cary 3E (Varian) and Fluorolog 2 (Spex) fluorimeter, respectively. Analytical, semi-preparative, and preparative HPLCs were performed on Agilent HPLCs, with Luna C18(2) columns (Phenomenex) using water (solvent A) and acetonitrile (solvent B) with 0.05% TFA as an additive. Low resolution ESI mass spectrometry was performed on an Agilent LC/MSD Trap XCT coupled to an Agilent HPLC. High resolution mass spectra were acquired on a ThermoFisher Orbitrap XL hybrid mass spectrometer. ^1H NMR spectra were collected in CDCl3 or d6-DMSO (Cambridge Isotope Laboratories, Cambridge, Mass.) at 25° C. on a 400 Varian Mercury Plus or Jeol ECA 500 spectrometer at the Department of Chemistry and Biochemistry NMR Facility at the University of California, San Diego. All chemical shifts are reported in the standard δ notation of parts per million using the peak of residual proton signals of CDCl3 or d6-DMSO as an internal reference.

Which results are given for `CCCCN(CCCC)c1ccc(/C=C/c2ccc(/C=C/c3ccc(-c4c5cc(Cl)c(=O)cc-5oc5cc(O)c(Cl)cc45)c(S(=O)(=O)O)c3)cc2)cc1` [VF2.4.Cl, 5-(4-(4-(dibutylamino)styryl)styryl)-2-(2,7-dichloro-6-hydroxy-3-oxo-3H-xanthen-9-yl)benzenesulfonic acid]?
absorbance λmax: 527 nm; Φ: 0.23; ε527: 40000 M⁻¹ cm⁻¹; emission centered at (excitation at 527 nm): 540 nm
